According to patent US6951848B2, “Functionalized heterocycles as modulators of chemokine receptor function and methods of use therefor” (Millennium Pharmaceuticals, Inc.,, priority 2001, dated 2005):

Tests used:
[1] = biological target: T1, CCR-5 (Homo sapiens, UniProt P51681); test: 125I-gp120/sCD4/CCR-5 receptor binding assay; conditions: membranes from CCR-5/L 1.2 cells, 3 nM sCD4, 0.1 nM 125I-gp120 (HIV-1 JR-FL); read-out: IC50 for inhibition of binding of sCD-4/GP-120 to CCR-5
T1 construct: expressed in transfected cells; host or cells: L1.2 cells (CCR-5/L1.2 transfectants), membranes
T1 sequence (P51681 whole entry): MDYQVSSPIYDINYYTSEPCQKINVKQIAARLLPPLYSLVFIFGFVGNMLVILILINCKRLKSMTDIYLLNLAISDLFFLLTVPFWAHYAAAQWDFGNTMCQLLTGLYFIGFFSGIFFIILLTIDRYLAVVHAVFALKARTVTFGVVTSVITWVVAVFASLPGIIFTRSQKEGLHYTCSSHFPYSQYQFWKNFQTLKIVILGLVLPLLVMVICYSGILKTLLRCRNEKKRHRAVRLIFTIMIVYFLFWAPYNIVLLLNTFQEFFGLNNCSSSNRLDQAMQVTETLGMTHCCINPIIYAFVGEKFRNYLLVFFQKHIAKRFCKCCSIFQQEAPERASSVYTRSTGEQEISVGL
Method: CCR-5 Receptor Binding Assay The compounds of the present invention were evaluated using the following CCR-5 receptor binding assay. The ^125I-gp120/sCD4/CCR-5 binding assay was carried out similarly as described in Wu et al., Nature, 1996;384:179-183. Briefly, the envelope gp120 protein derived from HIV-1 JR-FL (Trkola et al., Nature, 1996;384:184-186), an M-tropic strain, was iodinated using solid phase lactoperoxidase to a specific activity of 20 μCi/μg. For each binding reaction (in a final volume of 100 μL binding buffer [50 mM HEPES, pH 7.5, 1 mM CaCl2, 5 mM MgCl2, and 0.5% BSA]), 25 μL (2.5 μg) of membranes prepared from CCR-5/L 1.2 cells were mixed with 25 μL (3 nM) sCD4, followed by 25 μL (0.1 nM) radio-labeled gp120 in the presence or absence of 25 μL compound dissolved in DMSO (final concentration of DMSO 0.5%). The reactions were incubated at room temperature for 45 to 60 minutes and stopped by transferring the mixture to GFB filter plates, which were then washed 3 to 4 times with binding buffer containing 0.5 M NaCl. The plates were dried and MicroScint scintillation fluid was added before counting. […] The compounds of Examples 56 and 66 had IC50s of about […]. […] Preferred compounds can inhibit the binding of sCD-4/GP-120 to CCR-5 with IC50s of about 10 μM to about 100 μM or about 1 nM to about 10 μM

CCN(CC)CCc1ccc2[nH]c(C)c(C(=O)OCc3ccccc3)c2c1.Cl [Example 72, 5-(2-Diethylamino-ethyl)-2-methyl-1H-indole-3-carboxylic acid benzyl ester hydrochloride]
IC50 [1]: 1.93 ± 0.32 µM
melting point: 130 to 134 °C
